# Experimental data taken from patent US6861256B2, “Therapeutic and diagnostic tools for impaired glucose tolerance conditions” (The General Hospital Corporation, priority 1997, dated 2005).
# “Also recorded” adds a separate entry of the source.
# How the values were obtained:
# [1] = test system: C. elegans dauers; assay: Dauer recovery assay on drug plates; assay type: in vivo; conditions: for dauer recovery: C. elegans dauers induced by mutation or pheromone, drug plates; for dauer recovery of daf-2 dauers: daf-2(e1370) mutant dauers, all concentrations
# Protocol: Minimal media plates were used for the drug assays: 3.0 g NaCl, 20 g agarose (Sigma-Type II #A6877) and 970 ml of water. The autoclaved solution was cooled to 50-55° C. before 25 ml of 1M KPO4 (pH 6.0), 1.0 ml 1M CaCl2, 1.0 ml of 1M MgSO4, and 1 ml of 5 mg/ml cholesterol were added. In some assays, Escherichia coli (DH5α) bacteria arrested with streptomycin was added to each plate.
# In some experiments, 100-200 eggs or synchronized L1s were put onto the drug plates. For all experiments described herein, about 10,000 L1s were placed in 10 ml of S Medium containing 1-2 ml of a 0.4% (w/v) solution of Escherichia coli DH5α bacteria in M9 solution (Wood (1988) (Cold Spring Harbor Laboratory Press, Cold Spring Harbor, N.Y.)) arrested with streptomycin, in a 25 ml flask on a rotating heated water bath at 25° C. For wild-type N2 dauers, 600 μl of the 0.4% bacterial solution and pheromone was also added to flask as described in Gottlieb and Ruvkun (1994) Genetics 137:107120. The pheromone preparation is a solution prepared as follows. Animals were grown in a large flask for several generations, and then spun down. The supernatant was boiled down to a brownish powder and then ethanol extracted. After 72 hours of liquid growth, animals were centrifuged and the supernatant removed. Animals were then resuspended in a 15 ml tube with a pre-heated 25° C. solution of 1% SDS and tubes were placed on a rocker at 25° C. for 30 minutes. Animals were centrifuged and the SDS removed. Animals were washed with either M9 or S medium (Wood (1988) (Cold Spring Harbor Laboratory Press, Cold Spring Harbor, N.Y.)) 4-6 times. After a final spin, 100-200 dauers were placed onto the drug plates without food. 24 and 48 hours later, plates were scored for the number of dauers and non-dauer adults.
# For each strain tested, a control plate without any drug, with and without food was also tested. […] The assay was performed at 25° C., which means that the daf-c mutants are still under full dauer inducing conditions.
# [2] = test system: C. elegans unc-86 mutants; assay: 5HT accumulation in the NSM neuron of unc-86 mutants; assay type: in vivo
# [3] = test system: A. caninum L3; assay: Drug assay in A. caninum (resumption of feeding of infective L3); assay type: in vivo, Ancylostoma caninum; conditions: for dauer recovery: A. caninum L3, agonist without serum and GSM
# Protocol: Hookworm infective L3 animals were collected from 1-4 wk old coproculture by the Baermann technique, and decontaminated with 1% HCL in BU buffer (50 mM Na2PO4/22 mM KH2PO4/70 mM NaCl, pH 6.8) (Hawdon and Schad (1991) in Developmental Adaptations in Nematodes., ed. C. A. Toft, A. A. a. L. B. (Oxford University Press, Oxford), pp. 274-298; and Hawdon and Schad (1991) J. Helm. Soc. Wash. 58:140-142) for 30 minutes at 22° C. Approximately 250 L3 animals were incubated in individual wells of a 96-well tissue culture plate containing 0.1 ml RPMI1640 tissue culture medium, supplemented with 0.25 mM HEPES pH 7.2, 100 U/ml penicillin, 100 μg/ml streptomycin, 100 μg/ml gentamycin, and 2.5 μg/ml amphotericin B. The L3 animals were activated to resume development and feeding by including 10% (v/v) canine serum and 25 mM S-methyl-glutathione (GSM; Hawdon et al. (1995) Exper. Parasitol. 80:205-211). Non-activated L3 animals were incubated in RPMI alone (i.e., without the stimulus). Stock solutions of the drugs were made in RPMI, and included in the incubation at the indicated concentrations. […] The L3 animals were incubated at 37° C. 5% CO2 for 24 hours. The percentage of feeding L3 animals was determined by incubating the L3 animals with 2.5 mg/ml FITC-BSA for 2-3 hours, followed by counting the number of L3 animals that had ingested the labeled BSA by microscopic examination under epi-fluorescent illumination (Hawdon and Schad (1990) J. Parasit. 76:394-398). Each treatment was done in triplicate, and each experiment was repeated at least once.
# [4] = test system: C. elegans DAF-16 with the serine or threonine of the Akt/PKB consensus sites mutated to alanine
# [5] = test system: T1, C. elegans DAF-16
# T1 sequence: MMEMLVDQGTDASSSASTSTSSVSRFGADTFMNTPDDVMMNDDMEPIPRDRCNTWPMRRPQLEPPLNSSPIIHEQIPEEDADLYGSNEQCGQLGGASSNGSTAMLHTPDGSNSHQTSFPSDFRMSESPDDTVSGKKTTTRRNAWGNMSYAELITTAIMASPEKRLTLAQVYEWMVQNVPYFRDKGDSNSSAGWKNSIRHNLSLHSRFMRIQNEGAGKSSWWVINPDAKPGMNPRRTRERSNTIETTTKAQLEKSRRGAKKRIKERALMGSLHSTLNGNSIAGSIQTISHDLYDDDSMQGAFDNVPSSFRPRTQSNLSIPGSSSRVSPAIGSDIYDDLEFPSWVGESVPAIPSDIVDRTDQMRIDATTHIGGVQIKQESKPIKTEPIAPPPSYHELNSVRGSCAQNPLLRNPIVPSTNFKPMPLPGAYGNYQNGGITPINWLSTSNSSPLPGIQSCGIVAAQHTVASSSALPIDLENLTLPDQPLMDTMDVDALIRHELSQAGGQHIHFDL
# [6] = wild-type pheromone-induced dauers
compound,measurement,setting,value
"c1ccc([C@H]2CN3CCSC3=N2)cc1 [Levamisole, levamisole]",dauer recovery,[1],no effect on dauer recovery
CNCCC(Oc1ccc(C(F)(F)F)cc1)c1ccccc1 (centres unmarked) [Prozac],5HT accumulation in the NSM,[2],causes 5HT accumulation in the NSM to disappear
COC(=O)C1=CCCN(C)C1 [arecoline],dauer recovery,[3],promotes dauer recovery
same,maximal response lower than for the other agonists,"[3]; A. caninum, FIG. 44B",10 fold lower
same,dauer recovery,[1],promoted dauer recovery; also recorded: promoted recovery of dauers induced by mutation as well as pheromone
same,maximal response lower than for the other agonists,"[1]; C. elegans, FIG. 44B",10 fold lower
same,dauer recovery of daf-2 dauers,[1],fails to recover at all concentrations
CN1[C@@H]2CC[C@H]1C[C@@H](OC(=O)C(CO)c1ccccc1)C2 (some centres unmarked) [atropine],recovery with arecoline plus atropine,"[3]; A. caninum L3, 0.5 mM arecoline and 1.0 mM atropine (increasing atropine in FIG. 44C)",completely inhibited; also recorded: failed to recover
same,recovery / resumption of feeding,"[3]; A. caninum L3, 10% serum and 25 mM GSM, atropine 0.5 mM",completely inhibited recovery
same,inhibition at 500 µM,"[3]; Ancylostoma caninum, read-out: inhibition of recovery",99.5%
same,inhibition of muscarinic agonist-induced dauer recovery,"[1]; C. elegans, 1 mM oxotremorine, increasing atropine",completely inhibited; also recorded: all of the drug-induced dauer recovery was inhibited
same,recovery induced by oxotremorine in combination with atropine,"[1]; daf-7(e1372) dauers, 1 mM oxotremorine + 1 mM atropine",5%
same,oxotremorine response in presence of atropine,"[1]; daf-7(e1372) dauers, 1 mM oxotremorine + 5 mM atropine",completely abolished
same,dauer larvae recovered,"[1]; pheromone-induced dauers, bacterial food plus atropine, 25° C.",21%
C[N+](C)(C)CCOC(N)=O [carbachol],dauer recovery,[1],promoted recovery of dauers induced by mutation as well as pheromone
C[C@@H]1O[C@H](C[N+](C)(C)C)C[C@H]1O [muscarine],dauer recovery,[1],promoted dauer recovery
O=C1CCCN1CC#CCN1CCCC1 [oxotremorine],dauer recovery,[3],promotes dauer recovery
same,concentration of maximum recovery,[3]; A. caninum L3 dauers,5 mM
same,dauer recovery,[1],promoted dauer recovery; also recorded: promoted recovery of dauers induced by mutation as well as pheromone
same,Emax at 1000 µM,"[1]; Caenorhabditis elegans, daf-7(e1372), daf-10(e1387) double mutant, 1 mM oxotremorine, read-out: maximum response, recovery",13%
same,dauers that recover,[1]; daf-1(m40) dauers in oxotremorine,30%
same,dauer recovery of daf-2 dauers,[1],fails to recover at all concentrations
same,dauers that recover,[1]; daf-4(m63) dauers in oxotremorine,50%
same,concentration of maximum recovery,[1]; daf-7(e1372) dauers,5 mM
same,dauers recovered,"[1]; daf-7(e1372) dauers, 1 mM oxotremorine",40%
same,concentration of maximum recovery,[1]; [6],1 mM
CC[C@@H]1C(=O)OC[C@@H]1Cc1cncn1C [pilocarpine],dauer recovery,[3],failed to recover
same,dauer recovery,[1],promoted dauer recovery; also recorded: promoted recovery of dauers induced by mutation as well as pheromone
same,concentration of maximum recovery,[1]; daf-7(e1372) dauers,5 mM
same,concentration of maximum recovery,[1]; [6],1 mM
human AKT,in vitro phosphorylation,[4],in vitro phosphorylation of DAF-16 (or fragments of DAF-16) is abolished
same,in vitro phosphorylation,[5],human AKT will phosphorylate C. elegans DAF-16
